Target: T1, hGPR120 (Homo sapiens, UniProt Q5NUL3)
T1 construct: expressed in transfected cells; host or cells: CHO-K1
T1 sequence (Q5NUL3 1-361): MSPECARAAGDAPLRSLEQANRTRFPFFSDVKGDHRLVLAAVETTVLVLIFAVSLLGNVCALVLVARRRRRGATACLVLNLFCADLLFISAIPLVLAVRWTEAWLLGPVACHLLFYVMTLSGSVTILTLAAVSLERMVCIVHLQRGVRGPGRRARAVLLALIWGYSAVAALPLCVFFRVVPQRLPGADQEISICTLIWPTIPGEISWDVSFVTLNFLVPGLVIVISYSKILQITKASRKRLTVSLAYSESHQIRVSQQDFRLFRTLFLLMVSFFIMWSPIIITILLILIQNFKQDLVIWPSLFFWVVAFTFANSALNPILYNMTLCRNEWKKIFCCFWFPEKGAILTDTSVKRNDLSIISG
Experiment: Measurement of Activity of GPR120 Agonist (Cell-Based Assay), Calcium 5 dye fluorescence
Details: CHO-K1 cells expressing Ga16 and hGPR120
Outline: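 After an 18 h incubation at 37 °C, the transfected CHO-K1 cells (Gα16, hGPR120) received Calcium 5 dye for 1 h; compound dilutions in 0.5% DMSO were then injected and emission at 525 nm recorded, with values given as % of the vehicle response.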

| Structure (SMILES) | EC50 |
| --- | --- |
| CC(C)COc1cncc(-c2cc(F)c(N3CCC(CC(=O)O)CC3)c(F)c2)n1 [Example 342, 2-[1-[2,6-difluoro-4-(6-isobutoxypyrazin-2-yl)phenyl]-4-piperidyl]acetic acid] | < 200 nM |
| CCCCOc1cncc(-c2cc(F)c(N3CCC(CC(=O)O)CC3)c(F)c2)n1 [Example 343, 2-[1-[4-(6-butoxypyrazin-2-yl)-2,6-difluoro-phenyl]-4-piperidyl]acetic acid] | < 200 nM |
| O=C(O)CC1CCN(c2c(F)cc(-c3cncc(OC4CCCC4)n3)cc2F)CC1 [Example 344, 2-[1-[4-[6-(cyclopentoxy)pyrazin-2-yl]-2,6-difluoro-phenyl]-4-piperidyl]acetic acid] | < 200 nM |
| CCOc1ccnc(-c2cc(F)c(N3CCC(CC(=O)O)CC3)c(F)c2)n1 [Example 345, 2-[1-[4-(4-ethoxypyrimidin-2-yl)-2,6-difluoro-phenyl]-4-piperidyl]acetic acid] | < 200 nM |
| CC(C)Oc1ccnc(-c2cc(F)c(N3CCC(CC(=O)O)CC3)c(F)c2)n1 [Example 346, 2-[1-[2,6-difluoro-4-(4-isopropoxypyrimidin-2-yl)phenyl]-4-piperidyl]acetic acid] | < 200 nM |
| CCCOc1ccnc(-c2cc(F)c(N3CCC(CC(=O)O)CC3)c(F)c2)n1 [Example 347, 2-[1-[2,6-difluoro-4-(4-propoxypyrimidin-2-yl)phenyl]-4-piperidyl]acetic acid] | < 200 nM |
| CC(C)COc1ccnc(-c2cc(F)c(N3CCC(CC(=O)O)CC3)c(F)c2)n1 [Example 348, 2-[1-[2,6-difluoro-4-(4-isobutoxypyrimidin-2-yl)phenyl]-4-piperidyl]acetic acid] | < 200 nM |
| CCOc1cc(C)nc(-c2cc(F)c(N3CCC(CC(=O)O)CC3)c(F)c2)n1 [Example 349, 2-[1-[4-(4-ethoxy-6-methyl-pyrimidin-2-yl)-2,6-difluoro-phenyl]-4-piperidyl]acetic acid] | < 200 nM |
| Cc1cc(OC(C)C)nc(-c2cc(F)c(N3CCC(CC(=O)O)CC3)c(F)c2)n1 [Example 350, 2-[1-[2,6-difluoro-4-(4-isopropoxy-6-methyl-pyrimidin-2-yl)phenyl]-4-piperidyl]acetic acid] | 200 to 2000 nM |
| CCCOc1cc(C)nc(-c2cc(F)c(N3CCC(CC(=O)O)CC3)c(F)c2)n1 [Example 351, 2-[1-[2,6-difluoro-4-(4-methyl-6-propoxy-pyrimidin-2-yl)phenyl]-4-piperidyl]acetic acid] | < 200 nM |
| Cc1cc(OCC(C)C)nc(-c2cc(F)c(N3CCC(CC(=O)O)CC3)c(F)c2)n1 [Example 352, 2-[1-[2,6-difluoro-4-(4-isobutoxy-6-methyl-pyrimidin-2-yl)phenyl]-4-piperidyl]acetic acid] | 200 to 2000 nM |
| O=C(O)CC1CCN(c2c(F)cc(-c3cncc(N4CCCC4)n3)cc2F)CC1 [Example 353, 2-[1-[2,6-difluoro-4-(6-pyrrolidin-1-ylpyrazin-2-yl)phenyl]-4-piperidyl]acetic acid] | 2000 to 20000 nM |
| CC(C)Nc1cncc(-c2cc(F)c(N3CCC(CC(=O)O)CC3)c(F)c2)n1 [Example 354, 2-[1-[2,6-difluoro-4-[6-(isopropylamino)pyrazin-2-yl]phenyl]-4-piperidyl]acetic acid] | 200 to 2000 nM |
| CCN(CC)c1cncc(-c2cc(F)c(N3CCC(CC(=O)O)CC3)c(F)c2)n1 [Example 355, 2-[1-[4-[6-(diethylamino)pyrazin-2-yl]-2,6-difluoro-phenyl]-4-piperidyl]acetic acid] | 2000 to 20000 nM |
| CC(C)CNc1cncc(-c2cc(F)c(N3CCC(CC(=O)O)CC3)c(F)c2)n1 [Example 356, 2-[1-[2,6-difluoro-4-[6-(isobutylamino)pyrazin-2-yl]phenyl]-4-piperidyl]acetic acid] | 200 to 2000 nM |
| O=C(O)CC1CCN(c2c(F)cc(-c3cncc(NC4CCCC4)n3)cc2F)CC1 [Example 357, 2-[1-[4-[6-(cyclopentylamino)pyrazin-2-yl]-2,6-difluoro-phenyl]-4-piperidyl]acetic acid] | 200 to 2000 nM |
| O=C(O)CC1CCN(c2c(F)cc(-c3cccc(NC4CCCC4)n3)cc2F)CC1 [Example 358, 2-[1-[4-[6-(cyclopentylamino)-2-pyridyl]-2,6-difluoro-phenyl]-4-piperidyl]acetic acid] | 200 to 2000 nM |
| CC(C)CNc1ccnc(-c2cc(F)c(N3CCC(CC(=O)O)CC3)c(F)c2)n1 [Example 360, 2-[1-[2,6-difluoro-4-[4-(isobutylamino)pyrimidin-2-yl]phenyl]-4-piperidyl]acetic acid] | 200 to 2000 nM |
| Cc1ncc(-c2cc(F)c(N3CCC(CC(=O)O)CC3)c(F)c2)nc1OC1CCC1 [Example 361, 2-[1-[4-[6-(cyclobutoxy)-5-methyl-pyrazin-2-yl]-2,6-difluoro-phenyl]-4-piperidyl]acetic acid] | 200 to 2000 nM |

| Structure (SMILES) | EC50 |
| --- | --- |
| O=C(O)CC1CCN(c2c(F)cc(-c3cncc(C4CCCC4)n3)cc2F)CC1 [Example 363, 2-[1-[4-(6-cyclopentylpyrazin-2-yl)-2,6-difluoro-phenyl]-4-piperidyl]acetic acid] | < 200 nM |
| CC(C)Cc1cncc(-c2cc(F)c(N3CCC(CC(=O)O)CC3)c(F)c2)n1 [Example 364, 2-[1-[2,6-difluoro-4-(6-isobutylpyrazin-2-yl)phenyl]-4-piperidyl]acetic acid] | 200 to 2000 nM |
| CC(C)Cc1ccnc(-c2cc(F)c(N3CCC(CC(=O)O)CC3)c(F)c2)n1 [Example 365, 2-[1-[2,6-difluoro-4-(4-isobutylpyrimidin-2-yl)phenyl]-4-piperidyl]acetic acid] | 200 to 2000 nM |
| Cc1nsc(OC2CCC2)c1-c1cc(F)c(N2CCC(CC(=O)O)CC2)c(F)c1 [Example 366, 2-[1-[4-[5-(cyclobutoxy)-3-methyl-isothiazol-4-yl]-2,6-difluoro-phenyl]-4-piperidyl]acetic acid] | 200 to 2000 nM |
| CCOc1csc(-c2cc(F)c(N3CCC(CC(=O)O)CC3)c(F)c2)n1 [Example 367, {1-[4-(4-ethoxy-thiazol-2-yl)-2,6-difluoro-phenyl]-piperidin-4-yl}acetic acid] | 200 to 2000 nM |
| CCOc1nc(-c2cc(F)c(N3CCC(CC(=O)O)CC3)c(F)c2)sc1C [Example 368, {1-[4-(4-ethoxy-5-methyl-thiazol-2-yl)-2,6-difluoro-phenyl]-piperidin-4-yl}acetic acid] | 200 to 2000 nM |
| CCCCc1cncc(-c2cc(F)c(N3CCC(CC(=O)O)CC3)c(F)c2)n1 [Example 369, 2-[1-[4-(6-butylpyrazin-2-yl)-2,6-difluoro-phenyl]-4-piperidyl]acetic acid] | < 200 nM |
| CC(C)CCc1cncc(-c2cc(F)c(N3CCC(CC(=O)O)CC3)c(F)c2)n1 [Example 370, 2-[1-[2,6-difluoro-4-(6-isopentylpyrazin-2-yl)phenyl]-4-piperidyl]acetic acid] | 200 to 2000 nM |
| O=C(O)CC1CCN(c2c(F)cc(-c3ncc(F)c(OC4CCC4)n3)cc2F)CC1 [Example 371, 2-[1-[4-[4-(cyclobutoxy)-5-fluoro-pyrimidin-2-yl]-2,6-difluoro-phenyl]-4-piperidyl]acetic acid] | < 200 nM |
| O=C(O)CC1CCN(c2c(F)cc(-c3ncc(F)c(OCC4CC4)n3)cc2F)CC1 [Example 372, 2-[1-[4-[4-(cyclopropylmethoxy)-5-fluoro-pyrimidin-2-yl]-2,6-difluoro-phenyl]-4-piperidyl]acetic acid] | < 200 nM |
| O=C(O)CC1CCN(c2c(F)cc(-c3cccc(C4CCC4)n3)cc2F)CC1 [Example 373, 2-[1-[4-(6-cyclobutyl-2-pyridyl)-2,6-difluoro-phenyl]-4-piperidyl]acetic acid] | 200 to 2000 nM |
| O=C(O)CC1CCN(c2c(F)cc(-c3cncc(C4CCC4)n3)cc2F)CC1 [Example 374, 2-[1-[4-(6-cyclobutylpyrazin-2-yl)-2,6-difluoro-phenyl]-4-piperidyl]acetic acid] | < 200 nM |
| O=C(O)CC1CCN(c2c(F)cc(-c3cccc(CC4CCC4)n3)cc2F)CC1 [Example 375, 2-[1-[4-[6-(cyclobutylmethyl)-2-pyridyl]-2,6-difluoro-phenyl]-4-piperidyl]acetic acid] | 200 to 2000 nM |
| O=C(O)CC1CCN(c2c(F)cc(-c3cccc(CC4CCCC4)n3)cc2F)CC1 [Example 376, 2-[1-[4-[6-(cyclopentylmethyl)-2-pyridyl]-2,6-difluoro-phenyl]-4-piperidyl]acetic acid] | 200 to 2000 nM |
| O=C(O)CC1CCN(c2c(F)cc(-c3nc(OCC4CC4)cs3)cc2F)CC1 [Example 377, {1-[4-(4-cyclopropylmethoxy-thiazol-2-yl)-2,6-difluoro-phenyl]-piperidin-4-yl}acetic acid] | < 200 nM |
| O=C(O)CC1CCN(c2c(F)cc(-c3nc(OC4CCC4)cs3)cc2F)CC1 [Example 379, {1-[4-(4-cyclobutoxy-thiazol-2-yl)-2,6-difluoro-phenyl]-piperidin-4-yl}acetic acid] | < 200 nM |
| CCCCOc1csc(-c2cc(F)c(N3CCC(CC(=O)O)CC3)c(F)c2)n1 [Example 380, {1-[4-(4-butoxy-thiazol-2-yl)-2,6-difluoro-phenyl]-piperidin-4-yl}acetic acid] | 200 to 2000 nM |
| O=C(O)CC1CCN(c2c(F)cc(-c3ncnc4c3CCC4)cc2F)CC1 [Example 382, 2-[1-[4-(6,7-dihydro-5H-cyclopenta[d]pyrimidin-4-yl)-2,6-difluoro-phenyl]-4-piperidyl]acetic acid] | > 20000 nM |
| Cc1nc(-c2cc(F)c(N3CCC(CC(=O)O)CC3)c(F)c2)nc(OC2CCC2)c1C [Example 384, 2-[1-[4-[4-(cyclobutoxy)-5,6-dimethyl-pyrimidin-2-yl]-2,6-difluoro-phenyl]-4-piperidyl]acetic acid] | 2000 to 20000 nM |
